Data on one compound can be found in ChEMBL document CHEMBL5136995, “Structure-based optimization of hydroxylactam as potent, cell-active inhibitors of lactate dehydrogenase” (Bioorg Med Chem Lett, 2022).

Data set [1] in a line: AUC in mouse at 5 mg/kg, po. The arrangement: dose 5 mg/kg, route po. Conditions: in vivo. Type of data set: ADME, organism-based.
Data set [2] can be described thus: AUC in mouse at 1 mg/kg, iv. Conditions: in vivo. The arrangement: dose 1 mg/kg, route iv. The class given is ADME, organism-based.
Data set [3] has as its target L-lactate dehydrogenase A chain (Homo sapiens, UniProt P00338). Briefly: Inhibition of LDHA (unknown origin).
The nature of data set [4]: Inhibition of lactate production in human MIA PaCa-2 cells. Type of data set: functional, cell-based.
Data set [5] can be described thus: Lipophilicity, logD of compound. The class given is physicochemical. Conditions: octanol/water.
The nature of data set [6]: Cmax in mouse at 100 mg/kg, po. Type of data set: ADME, organism-based. Details: dose 100 mg/kg, route po. Conditions: in vivo.
Data set [7] is described as follows: Apparent permeability across apical to basolateral side in MDCK cells at 100 uM by HPLC analysis. Type of data set: ADME, cell-based, Canis lupus familiaris. The settings on record: dog.
Data set [8] is described as follows: Plasma protein binding in mouse. The class given is ADME, cell-free. The settings on record: read-out: PPB.
A short description of data set [9]: AUC in mouse at 50 mg/kg, po. Conditions: in vivo. Type of data set: ADME, organism-based. The arrangement: dose 50 mg/kg, route po.
The nature of data set [10]: AUC in mouse at 100 mg/kg, po. Details: dose 100 mg/kg, route po. The class given is ADME, organism-based. Conditions: in vivo.
A short description of data set [11]: AUC in mouse at 200 mg/kg, po. Details: dose 200 mg/kg, route po. Type of data set: ADME, organism-based. The settings on record: in vivo.
The nature of data set [12]: Cmax in mouse at 1 mg/kg, iv. Type of data set: ADME, organism-based. The arrangement: dose 1 mg/kg, route iv. Conditions: in vivo.
Data set [13] in a line: Cmax in mouse at 5 mg/kg, po. Conditions: in vivo. The arrangement: dose 5 mg/kg, route po. Type of data set: ADME, organism-based.
Data set [14] in a line: Cmax in mouse at 50 mg/kg, po. Conditions: in vivo. Type of data set: ADME, organism-based. The arrangement: dose 50 mg/kg, route po.
The nature of data set [15]: Cmax in mouse at 200 mg/kg, po. Type of data set: ADME, organism-based. Details: dose 200 mg/kg, route po. The settings on record: in vivo.
Data set [16] in a line: Oral bioavailability in mouse at 5 mg/kg. Type of data set: ADME, organism-based. The settings on record: in vivo.
Data set [17] can be described thus: Half-life in mouse at 1 mg/kg, iv. Type of data set: ADME, organism-based. Conditions: in vivo.
Data set [18] can be described thus: Volume of distribution at steady state in mouse at 1 mg/kg, iv. Conditions: in vivo, read-out: Vdss. The class given is ADME, organism-based.
Data set [19] can be described thus: Clearance in mouse at 1 mg/kg, iv. The class given is ADME, organism-based. The settings on record: in vivo.
Data set [20] can be described thus: Toxicity in mouse xenografted with human MIA PaCa-2 cells assessed as effect on body weight at 200 to 400 mg/kg administered twice a day for 28 days. The settings on record: in vivo, 672 h, dose 200-400 mg/kg, time 28 day. Type of data set: organism-based. (Xenograft models place foreign cells or tissue in a host animal.)

The term AUC denotes concentration integrated over time. Higher therefore signals more exposure. As usually defined, the IC50 is the concentration that inhibits the measured activity by half. A low value points to higher potency. What is called logD is the decadic logarithm of the distribution of all forms, ionised or not, between an organic phase and buffer at a given pH. In general, Cmax refers to the highest concentration seen after dosing. As usually defined, the Papp A→B is how fast a substance crosses the layer from the apical side. A word on the bioavailability: it is dose-corrected exposure relative to a reference, in per cent. Read a high bioavailability as good availability. Usually half-life stands for how long it takes for the measured level to halve. As a reminder, the clearance is a measure of how efficiently the substance is removed, as volume per time. A higher clearance goes with a high capacity for elimination. For the compound `O=C1N[C@](c2cccc(Nc3ccc(F)cc3)n2)(c2cccc(Nc3ccc(F)c(F)c3)n2)CC(O)=C1Sc1ccccc1Cl`, the AUC was found to be 19.4 µM·h in data set [1]; 6.5 µM·h in data set [2]; 71.2 µM·h in data set [9]; 235 µM·h in [10]; 411 µM·h in [11]. In addition, the values for the half-inhibitory concentration (IC50) in [3] and in data set [4] were 0.0016 µM and 2 µM, respectively. For the same compound, the logD in data set [5] came to 2.2. Also, the maximum concentration (Cmax) in data set [6] was 66.9 µM; in [12], 7.36 µM; in [13], 5.95 µM; in [14], 23.3 µM; in data set [15] it was 117 µM. Further, in data set [7], the Papp A→B at 100 µM stood at 4.6 ×10⁻⁶ cm/s. Further, the fraction unbound in [8] turned out to be 0.001. Besides, the bioavailability in [16] was found to be 59.5%. In [17], this compound had a half-life of 2.81 h. The Vd in [18] worked out at 0.671 L/kg. This compound also returned a clearance in data set [19] of 4.89 mL/min/kg. Besides, the Activity entry in [20] is “Non-Toxic”.
